{
  "source": "patent US20150038415A1",
  "about": "“PROCESS FOR THE MANUFACTURING OF A DRUG DELIVERY SYSTEM BASED ON A POLYMER COMPRISING A DISPERSED BIOACTIVE AGENT” (DSM IP Assets B.V., priority 2011, published 2015)",
  "tested_on": "Nb2 (rat lymphoma) cells",
  "test": "Bioactivity of released rHGH by Nb2 cell proliferation assay",
  "format": "cell-based",
  "experimental": "Bioactivity of rHGH present in release samples was assessed by measuring its influence on the proliferation of Nb2 (rat lymphoma) cells.^1 1 Bozzola, M. et. al. Evaluation of growth hormone bioactivity using the Nb2 cell bioassay in children with growth disorders. J. Endocrinol Invest.1998, 21, 765-770\nThe method used is described below:^2 2 Tanaka. T. et. al. A new sensitive and specific bioassay for lactogenic hormones: measurement of prolactin and growth hormone in human serum. J. Clin. Endocrinol. Metab.1980, 51, 1058-1063 […]\nCells were then counted with a Guava Easycyte (Millipore) capillary cytometer using Viacount reagent (Millipore) to stain cells, according to the recommendations of the manufacturer. […]\nSamples originating from the release experiments were diluted in incubation medium to reach an expected (according to HPLC quantification) concentration of rHGH between 80 and 280 pg/mL(concentration range in which growth of Nb2 cells is rHGH concentration-dependent). […]\nAfter incubation, cells were stained with 50 uL Viacount reagent and viable cells were counted by capillary cytometry.\nBioactivity of rHGH released from the fibers was measured through use of the cell-proliferation assay described above. Release samples were introduced to the cell culture medium and the effect of rHGH on cell proliferation was measured via cell counting with capillary cytometry.",
  "note": "Entries after “also recorded” stand apart in the source; their conditions may differ.",
  "data": [
    {"substance": "rHGH: lyophilized powder of recombinant human growth hormone, dispersed in PEA-III-Ac-Bz film cut into fibers", "values": [
      {"measurement": "Bioactivity of rHGH released from the fibers (cell proliferation assay)", "setting": "rHGH released from PEA-III-Ac-Bz fibers into release medium (PBS pH 7.4 with BSA and penicillin) at 37° C., Nb2 cells incubated 72 hours", "value": "retained; also recorded: bioactive; also recorded: retains its bioactivity"},
      {"measurement": "Cell response to release samples (cell counting with capillary cytometry)", "setting": "release samples taken at 1 h, 3 h, 6 h, 24 h & 48 h from PEA-III-Ac-Bz fibers with approximately 1-2 wt % rHGH", "value": "positive cell response"}
    ]}
  ]
}
